pIC50: −log10 of the molar value.

From patent US20140121235A1, “Method for Treating S6K-Overexpressing Cancers” (Rush University Medical Center, priority 2012, published 2014) come the findings set out here.

Assay [1] addresses recombinant p70 S6 kinase (S6K1) (Homo sapiens, UniProt P23443). In words: In vitro p70 S6 kinase assay (ADP-Glo Kinase assay system). As to conditions: 30 min pre-incubation, ATP 10 μM, 1 hr, read-out: IC50, inhibition of recombinant S6K1 activity. The class given is biochemical. As for the experimental part:
Leflunomide and A77 1726 diluted at the final concentrations as indicated were pre-mixed with S6K1 for 30 min, followed by the addition of peptide substrate of S6K1 and incubation for 1 hr. S6K1 activity was measured by using a ADP-Glo™ system. The experiment was repeated with similar results. The data represents the mean±standard deviation from one experiment in triplicate.
The ability of lefiunomide and A77 1726 to inhibit p70 S6 kinase assay was conducted by using an ADP-Glo™ Kinase assay system (Promega Corporation, Madison, Wis.). Briefly, A77 1726 or leflunomide diluted in the kinase buffer was mixed with recombinant p70 S6 kinase (100 ng/reaction) and incubated at room temperature for 30 min. Peptide substrate of p70 S6 kinase (5 μg/reaction) and ATP (10 μM, final concentration) was added, with a total final volume of 25 μl. After incubation for 1 hr, ADP-Glo™ reagent (25 μl) was added to each reaction. After incubation for 40 min, kinase detection substrate (luciferin) (50 μl/reaction) was added. After incubation fix 30 min, luciferase activity was measured by reading in a luminescence plate reader. The experiment was conducted in triplicate and repeated once with similar results. The data from one experiment were presented as mean±standard deviation.
In general terms: In ADP-Glo the light output rises with the ADP produced.

The test system of assay [2] is ribosomal protein S6^S235/S236 phosphorylation. Kind of assay: Western blot of S6 phosphorylation in A375 cells. The assay is classed as cell-based. To be noted: Homo sapiens, A-375; read-out: IC50 to inhibit S6 phosphorylation in cell culture. As to the method: (§1) A375 cells seeded in a 6-well plate were starved in DMEM medium containing 0.5% FBS for 2 hr and treated with the indicated concentration of A77 1726 or PLX 4720 (1 μM) for another 2 hr (A) or treated with A77 1726 (100 μM) for the indicated time (B & C). Cells were harvested and analyzed for protein phosphorylation by specific antibodies as indicated. Protein loading was monitored by stripping membrane and re-probing with antibodies against non-phosphorylated proteins. […] A375 cells seeded in a 6-well plate were starved in DMEM medium containing 05% FBS for 2 hr and treated with the indicated concentration of A77 1726 in the absence or presence of uridine (200 μM). Phosphorylated and total proteins were analyzed by Western blot as described above.
(§2) A375 cells seeded in 6-well plates were starved in DMEM medium containing 0.5% FBS for 2 hr and then pre-treated with vehicle (0.1% dimethyl sulfoxide), LY294002 (10 μM) (A), PPP (1 μM) (B), or the inhibitors of the MAP kinase pathway (PLX4720, 1 μM; U0126, 10 μM; PD98059, 10 μM) (C) for 1 hr. Cells were then treated with A77 1726 (100 μM) or rapamycin (20 nM) as indicated for 2 hr. Cells were harvested and analyzed for protein phosphorylation by specific antibodies as indicated. Protein loading was monitored by stripping membrane and re-probing with antibodies against non-phosphorylated proteins.
(§3) Cells grown in 6-well plates were harvested and lysed in NP-40 lysis buffer (50 mM Tris-HCI (pH 8.0), 150 mM NaCl, 1% NP-40, 5 mM EDTA, 10 μg/ml aprotinin, 10 μg/ml leupeptin, and 1 mM phenylmethylsulfonyl fluoride). After incubation on ice for 30 min, the cell lysates were prepared by spinning down at 4° C., 15,000 rpm for 15 min. After electrophoresis and transfer to Immobolin membrane, proteins of interest were probed with their specific antibodies, followed by horseradish peroxidase-conjugated goat anti-rabbit IgG and SuperSignal Western Pico enhanced chemiluminoscence substrate (Pierce Chemical Co., Rockford, Ill.).
(§4) The PI-3 and MAP kinase pathways play an important role in cell proliferation, differentiation, and cell cycle progress. Multiple genes in these two pathways are frequently mutated and have a commanding role in driving tumorigenesis and tumor cell proliferation (2; 3). […] Here we tested whether A77 1726 affected the activation of MAP and PI-3 kinase pathways. A375 cells grown in 6-well plates were starved in the media containing 0.5% FBS for 2 hr and then treated with the indicated concentration of A77 1726. […] We next explored the effect of A77 1726 in phosphorylation of the molecules in the PI-3 kinase pathway.
(In general: In western blotting, separated proteins are transferred to a membrane and probed.)

Assay [3] deals with ERK1/2^T202/Y204 and MEK1/2^S217/S221 phosphorylation. In words: Western blot of MAP kinase pathway phosphorylation in A375 cells. The assay is classed as cell-based. As to the method: as §1, §2, §3, §4
The subject of another assay is Raf-1 phosphorylation. In words: Western blot of Raf-1 phosphorylation in A375 cells. The assay is classed as cell-based. As for the experimental part:
A375 cells seeded in a 6-well plate were starved in DMEM medium containing 0.5% FBS for 2 hr and treated with the indicated concentration of A77 1726 or PLX 4720 (1 μM) for another 2 hr (A) or treated with A77 1726 (100 μM) for the indicated time (B & C). Cells were harvested and analyzed for protein phosphorylation by specific antibodies as indicated. Protein loading was monitored by stripping membrane and re-probing with antibodies against non-phosphorylated proteins. (D) Uridine fails to reverse the effect of A77 1726 on the PI-3 and MAP kinase pathways. A375 cells seeded in a 6-well plate were starved in DMEM medium containing 05% FBS for 2 hr and treated with the indicated concentration of A77 1726 in the absence or presence of uridine (200 μM). Phosphorylated and total proteins were analyzed by Western blot as described above.
Cells grown in 6-well plates were harvested and lysed in NP-40 lysis buffer (50 mM Tris-HCI (pH 8.0), 150 mM NaCl, 1% NP-40, 5 mM EDTA, 10 μg/ml aprotinin, 10 μg/ml leupeptin, and 1 mM phenylmethylsulfonyl fluoride). After incubation on ice for 30 min, the cell lysates were prepared by spinning down at 4° C., 15,000 rpm for 15 min. […]

recombinant p70 S6 kinase (S6K1), sequence (P23443 whole entry): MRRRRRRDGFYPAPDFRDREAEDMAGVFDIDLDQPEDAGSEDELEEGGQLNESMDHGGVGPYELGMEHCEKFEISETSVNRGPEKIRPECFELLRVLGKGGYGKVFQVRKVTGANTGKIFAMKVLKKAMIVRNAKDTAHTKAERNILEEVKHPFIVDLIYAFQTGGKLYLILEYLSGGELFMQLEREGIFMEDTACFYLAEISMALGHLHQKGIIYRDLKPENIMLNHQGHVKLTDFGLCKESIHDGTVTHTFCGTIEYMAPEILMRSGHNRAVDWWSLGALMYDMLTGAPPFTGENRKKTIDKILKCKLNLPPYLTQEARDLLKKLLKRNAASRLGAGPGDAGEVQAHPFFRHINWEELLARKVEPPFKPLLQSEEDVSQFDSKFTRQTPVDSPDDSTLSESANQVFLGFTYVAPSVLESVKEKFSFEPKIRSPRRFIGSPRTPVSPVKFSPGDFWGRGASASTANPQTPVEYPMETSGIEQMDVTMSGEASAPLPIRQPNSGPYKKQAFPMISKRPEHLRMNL

As a reminder, the pIC50 is −log10 of the IC50, conventionally taken in molar units. Consider `Cc1oncc1C(=O)Nc1ccc(C(F)(F)F)cc1` [leflunomide], for which the pIC50 is about 4.26 in assay [1] and 4.12 to 4.30 in assay [2]. Besides, the “effect on ERK1/2 and MEK phosphorylation” value in assay [3] (A375 cells starved in 0.5% FBS, A77 1726 or leflunomide at indicated concentrations, 2 hr) is “rapidly and potently induced”. For the same compound, the “potency in inducing feedback activation of the MAP kinase pathway” value in assay [3] (A375 cells, compared with A77 1726) is “slightly more potent than A77 1726”. In the assay with Raf-1 phosphorylation, the “effect on Raf-1 phosphorylation” value is “no increased Raf-1 phosphorylation”.
